Laboratory results from publication PMC6327999, “Hydroxyl-substituted double Schiff-base condensed 4-piperidone/cyclohexanones as potential anticancer agents with biological evaluation” (Journal of Enzyme Inhibition and Medicinal Chemistry, 2019).

Experiments:
[1] = tested on: human liver hepatocellular carcinoma cell line (Hepg2); assay: Cytotoxicity, MTT assay, HePG2; type: cell-based; conditions: for IC50: Homo sapiens, HepG2, MTT, 24 hours; for HePG2 SI: quotient of the IC50 values towards nonmalignant LO2 cells
Text: Compounds 2a–d, 3a–e, 4a–e, 5a–d, and 6a–c were screened against human neoplastic cell lines such as human lung carcinoma cells (A549), human gastric adenocarcinoma cells (SGC7901), human cervical carcinoma cells (HeLa), human liver hepatocellular carcinoma cell line (Hepg2), human chronic myelogenous leukemia cell line (K562), human acute mononuclear granulocyte leukemia (THP-1), human normal heptical cell line (LO2) (Table 1) using modified MTT assay (3-(4,5-dimethyl-2-thiazolyl)-2,5-diphenyl-2-H-tetrazolium bromide, MTT, Dojindo Laboratories, Tokyo, Japan). All cell lines were maintained at 37 °C in a humidified 5% CO2 and 95% air atmosphere. The HePG2 cell lines were cultured in DMEM containing 10% fetal bovine serum. Other cell lines were grown in medium 1640 and supplemented with 10% fetal bovine serum. […] Controls were prepared with 0.1% DMSO (v/v) only. The cells were seeded in a 96-well plate in 200 µL medium per well at a density of 1 × 10^4 cells/well for 24 hours. The cells were treated with serial concentrations of compound and incubated for 24 hours. Cells with only culture media were used as control. After the media was removed, 20 µL of MTT (5 mg/mL) was added then the plates were incubated for 4 hours at 37 °C in cell culture incubator. The MTT containing media were removed and then 150 µL of DMSO was added to dissolve the dark-blue formazan crystals. The optical density (OD) was measured by a multi-well plate reader (TECAN, Männedorf, Switzerland) at 570 nm. The results are expressed as a decrease in the cell viability (%) in comparison to untreated controls. The concentration of each compound was examined in triplicate, and the IC50 values are expressed in Table 1. The concentrations of the compounds were 50, 20, 10, 5, 2.5, 1, 0.5, 0.1, 0.05 and 0.01 µg/mL. […] The concentrations of curcumin used were 100, 50, 25, 12.5, 6.25, 3.125, 1, 0.5 and 0.1 µg/mL.

[2] = tested on: human chronic myelogenous leukemia cell line (K562); assay: Cytotoxicity, MTT assay, K562; type: cell-based; conditions: for IC50: Homo sapiens, K562, MTT, 24 hours; for K562 SI: quotient of the IC50 values towards nonmalignant LO2 cells
Text: (§1) Compounds 2a–d, 3a–e, 4a–e, 5a–d, and 6a–c were screened against human neoplastic cell lines such as human lung carcinoma cells (A549), human gastric adenocarcinoma cells (SGC7901), human cervical carcinoma cells (HeLa), human liver hepatocellular carcinoma cell line (Hepg2), human chronic myelogenous leukemia cell line (K562), human acute mononuclear granulocyte leukemia (THP-1), human normal heptical cell line (LO2) (Table 1) using modified MTT assay (3-(4,5-dimethyl-2-thiazolyl)-2,5-diphenyl-2-H-tetrazolium bromide, MTT, Dojindo Laboratories, Tokyo, Japan). All cell lines were maintained at 37 °C in a humidified 5% CO2 and 95% air atmosphere. The HePG2 cell lines were cultured in DMEM containing 10% fetal bovine serum. Other cell lines were grown in medium 1640 and supplemented with 10% fetal bovine serum. […] Controls were prepared with 0.1% DMSO (v/v) only. The cells were seeded in a 96-well plate in 200 µL medium per well at a density of 1 × 10^4 cells/well for 24 hours. The cells were treated with serial concentrations of compound and incubated for 24 hours. Cells with only culture media were used as control. After the media was removed, 20 µL of MTT (5 mg/mL) was added then the plates were incubated for 4 hours at 37 °C in cell culture incubator. The MTT containing media were removed and then 150 µL of DMSO was added to dissolve the dark-blue formazan crystals. The optical density (OD) was measured by a multi-well plate reader (TECAN, Männedorf, Switzerland) at 570 nm. The results are expressed as a decrease in the cell viability (%) in comparison to untreated controls. The concentration of each compound was examined in triplicate, and the IC50 values are expressed in Table 1. The concentrations of the compounds were 50, 20, 10, 5, 2.5, 1, 0.5, 0.1, 0.05 and 0.01 µg/mL. Doxorubicin (DOX) and Curcumin were used as positive controls. […] The concentrations of curcumin used were 100, 50, 25, 12.5, 6.25, 3.125, 1, 0.5 and 0.1 µg/mL.

[3] = tested on: human carcinoma cell lines A549, SGC7901, HePG2, HeLa, K562, THP-1; assay: Cytotoxicity, MTT assay, panel of human carcinoma cell lines (average / overall); type: cell-based; conditions: average over the six carcinoma cell lines; for IC50: Homo sapiens, read-out: Ave IC50
Text: as §1
The cytotoxicity activities against human carcinoma cell lines A549, SGC7901, HePG2, HeLa, K562, THP-1 and cytotoxicity toward LO2 cell lines were evaluated by MTT method. DOX and curcumin were used as positive control. The selectivity index (SI) is the quotient of the IC50 values towards nonmalignant LO2 cells. […] Especially for 4a–e, 5a–d, and 6a–c, this ratio can reach about 92%.

[4] = tested on: human gastric adenocarcinoma cells (SGC7901); assay: Cytotoxicity, MTT assay, SGC7901; type: cell-based; conditions: for IC50: Homo sapiens, SGC-7901, MTT, 24 hours; for SGC7901 SI: quotient of the IC50 values towards nonmalignant LO2 cells
Text: as §1

[5] = tested on: human lung carcinoma cells (A549); assay: Cytotoxicity, MTT assay, A549; type: cell-based; conditions: for IC50: Homo sapiens, A549, MTT, 24 hours; for A549 SI: quotient of the IC50 values towards nonmalignant LO2 cells
Text: as §1

[6] = tested on: human normal heptical cell line (LO2); assay: Cytotoxicity, MTT assay, non-malignant LO2; type: cell-based; conditions: 24 hours, non-malignant cells
Text: as §1

[7] = tested on: human acute mononuclear granulocyte leukemia (THP-1); assay: Cytotoxicity, MTT assay, THP-1; type: cell-based; conditions: for IC50: Homo sapiens, THP-1, MTT, 24 hours; for THP-1 SI: quotient of the IC50 values towards nonmalignant LO2 cells
Text: as §1

[8] = tested on: human cervical carcinoma cells (HeLa); assay: Cytotoxicity, MTT assay, HeLa; type: cell-based; conditions: for IC50: Homo sapiens, HeLa, MTT, 24 hours; for HeLa SI: quotient of the IC50 values towards nonmalignant LO2 cells
Text: as §1

HepG2 xenografts = assay: In vivo antitumor efficacy, HepG2-bearing nude mice; parameters: species or system Balb/c nude mice; conditions: DOX 1.0 mg/kg every two days for 20 days
Experimental: The antitumor effect was investigated on the seven-week-old female Balb/c nude mice (n = 30) weighing 19–21 grams (Shanghai Laboratory Animal Center). Briefly, 0.2 mL HepG2 cells (1 × 10^7/mL) were inoculated subcutaneously into the alar left of each mouse. On the third day after the inoculation, the HepG2-bearing mice were randomly divided into five groups (n = 6/group) and administrated the according drug or solvent. […] The control group was administrated of saline as negative control. The body weight and tumor volumes calculation were recorded from the day of treatment, and the tumor volumes were calculated using the following equation: tumor volume = length × (width)^2 × π/6. Animal experiments were reviewed and approved by the Binzhou Medical University Experimental Animal Committee.

Row | SMILES | IC50 [1] [nM] | HePG2 SI [1] | IC50 [2] [nM] | K562 SI [2] | IC50 [3] [nM] | Ave SI [3] | IC50 [4] [µM] | SGC7901 SI [4] | IC50 [5] [µM] | A549 SI [5] | IC50 [6] [µM] | IC50 [7] [nM] | THP-1 SI [7] | IC50 [8] [nM] | HeLa SI [8] | tumor growth inhibition (HepG2 xenografts)
1 | CN1C/C(=C\c2cc(/N=C/c3ccc(O)c(O)c3O)ccc2F)C(=O)/C(=C/c2cc(/N=C/c3ccc(O)c(O)c3O)ccc2F)C1 [6c] | 2600 ± 200 | 7.1 | 1900 ± 200 | 9.5 | 2000 | 9.5 | 2 ± 0.2 | 9.3 | 1.5 ± 0.2 | 12.5 | 18.4 ± 1 | 1600 ± 100 | 11.4 | 2500 ± 100 | 7.5 | –
2 | COc1cc(/C=C/C(=O)CC(=O)/C=C/c2ccc(O)c(OC)c2)ccc1O [Curcumin, reference compound] | 16000 ± 200 | 1.7 | 22100 ± 800 | 1.2 | 20800 | 1.4 | 21.5 ± 0.3 | 1.3 | 19.4 ± 0.2 | 1.4 | 27.5 ± 0.4 | 21700 ± 400 | 1.3 | 23800 ± 1300 | 1.2 | –
3 | COc1cccc2c1C(=O)c1c(O)c3c(c(O)c1C2=O)C[C@@](O)(C(=O)CO)C[C@@H]3O[C@H]1C[C@H](N)[C@H](O)[C@H](C)O1 [DOX, Doxorubicin, reference compound] | 600 ± 100 | – | 1600 ± 200 | – | 2600 | – | 7 ± 0.4 | – | 3.8 ± 0.1 | – | 6.1 ± 0.5 | 500 ± 200 | – | 2100 ± 300 | – | suppressed significantly
